Assays:
LNCaP/AR cells = experiment: PSA expression readout in LNCaP/AR; format: cell-based; conditions: for activity in the hormone refractory LNCaP/AR assay: Schemes 18 and 19; for activity: hormone-refractory LNCaP/AR, Scheme 21; for activity using PSA levels in vitro: hormone refractory cell line LNCaP/AR, Scheme 17
AR [1] = experiment: luciferase reporter assay; format: cell-based; conditions: for luciferase assay activity: vs 21 and 22 as standards, Scheme 13; for luciferase reporter assay activity: Scheme 14; for relative luciferase activity: vs bicalutamide and 27 as standards, Scheme 8
PSA secretion = experiment: relative PSA level / PSA secretion assay, cell line not named; format: cell-based; conditions: for relative PSA expression levels: vs bicalutamide and 27 as standards, Scheme 9
AR [2] = experiment: activity test, assay not named; format: cell-based; conditions: 27 as the standard, Scheme 10
[3] = pharmacokinetics: serum concentration, steady state concentration
LAPC4/AR cells = experiment: LAPC4/AR xenograft in castrate SCID mice; format: in vivo; conditions: 10 mg/kg, pilot experiment, Figure 1
[4] = vs 21 and 22 as standards, Scheme 13
[5] = vs 27 and 38 as standards, Scheme 12

## CNC(=O)c1ccc(N2C(=S)N(c3ccc(C#N)c(C(F)(F)F)c3)C(=O)C2(C)C)cc1 [compound 88, 4-[3-(4-Cyano-3-trifluoromethylphenyl)-5,5-dimethyl-4-oxo-2-thioxo-imidazolidin-1-yl]-N-methylbenzamide]
LNCaP/AR cells
  activity in the hormone refractory LNCaP/AR assay: good activity

## CNC(=O)c1ccc(N2C(=S)N(c3ccc(C#N)c(C(F)(F)F)c3)C(=O)C2(C)C)cc1F [compound 92, N-Methyl-4-[3-(4-cyano-3-trifluoromethylphenyl)-5,5-dimethyl-4-oxo-2-thioxoimidazolidin-1-yl]-2-fluorobenzamide]
LNCaP/AR cells; Figure 9
  dose-response study on castration resistant LNCaP AR cells: a little more active than 91
LNCaP/AR cells
  activity: very active

## CC/N=C1\N(c2ccc(C#N)c(C(F)(F)F)c2)C(=S)N(c2ccc(C)cc2)C1(C)C [compound 60]
AR [1]
  luciferase assay activity: somewhat active
PSA secretion; [4]
  relative PSA levels: somewhat active

## Cc1ccccc1N1C(=S)N(c2ccc(C#N)c(C(F)(F)F)c2)C(=O)C12CCC2 [compound 44]
AR [2]
  activity: active

## Cc1ccc(N2C(=S)N(c3ccc(C#N)c(C(F)(F)F)c3)C(=N)C23CCC3)cc1 [compound 53]
PSA secretion; [5]
  relative PSA readout: nearly as active as the parent compounds 27 and 38

## Cc1ccc(N2C(=S)N(c3ccc(C#N)c(C(F)(F)F)c3)C(=O)C2(C)CF)cc1 (stereo not drawn) [compound 47]
AR [2]
  activity: good activity

## Cc1ccc(N2/C(=N/c3ccc(C#N)c(C(F)(F)F)c3)S/C(=N\C(=S)Nc3ccc(C#N)c(C(F)(F)F)c3)C2(C)C)cc1 [compound 63]
AR [1]
  luciferase reporter assay activity: excellent activity comparable to their parent thiohydantoin analogues 27 and 38
PSA secretion; Scheme 14
  relative PSA levels: excellent activity comparable to their parent thiohydantoin analogues 27 and 38

## CN(C)C(=O)CCCc1ccc(N2C(=S)N(c3ccc(C#N)c(C(F)(F)F)c3)C(=O)C23CCC3)cc1 [compound 94, N,N-dimethyl-4-[4-(7-(4-cyano-3-trifluoromethylphenyl)-8-oxo-6-thioxo-5,7-diazaspiro-[3.4]octan-5-yl)phenyl]butanamide]
LNCaP/AR cells
  activity: quite good activity compared to earlier compounds

## CNC(=O)c1ccc(N2C(=S)N(c3ccc(C#N)c(C(F)(F)F)c3)C(=O)C23CCC3)cc1 [compound 89, N-methyl-4-[7-(4-cyano-3-trifluoromethylphenyl)-8-oxo-6-thioxo-5,7-diazaspiro-[3.4]oct-5-yl]benzamide]
LNCaP/AR cells
  activity in the hormone refractory LNCaP/AR assay: good activity

## CS(=O)(=O)c1ccc(N2C(=S)N(c3ccc(C#N)c(C(F)(F)F)c3)C(=O)C23CCC3)cc1 [compound 86, 4-[5-(4-Methanesulfonylphenyl)-8-oxo-6-thioxo-5,7-diazaspiro[3.4]oct-7-yl]-2-trifluoromethylbenzonitrile]
LNCaP/AR cells
  activity in the hormone refractory LNCaP/AR assay: good activity

## CC(O)(CS(=O)(=O)c1ccc(F)cc1)C(=O)Nc1ccc(C#N)c(C(F)(F)F)c1 (stereo not drawn) [bicalutamide, reference compound]
LNCaP/AR cells
  activity using PSA levels in vitro: inactive

## N#Cc1ccc(N2C(=O)C3(CCC3)N(c3ccc(/C=C/CO)cc3)C2=S)cc1C(F)(F)F [compound 78, (E)-4-{5-[4-(3-Hydroxy-1-propenyl)phenyl]-8-oxo-6-thioxo-5,7-diazaspiro[3.4]oct-7-yl}-2-trifluoromethylbenzonitrile]
PSA secretion
  IC50: 100 to 150 nM

## N#Cc1ccc(N2C(=O)C3(CCC3)N(c3ccc(C=O)cc3)C2=S)cc1C(F)(F)F [compound 75, 4-[5-(4-Formylphenyl)-8-oxo-6-thioxo-5,7-diazaspiro[3.4]oct-7-yl]-2-trifluoromethylbenzonitrile]
PSA secretion
  IC50: 200 to 300 nM

## CCC1(CC)C(=O)N(c2ccc(C)cc2)C(=S)N1c1ccc(C#N)c(C(F)(F)F)c1 [compound 37, 4-[3-(4-Methylphenyl)-5,5-diethyl-4-oxo-2-thioxoimidazolidin-1-yl]-2-trifluoromethylbenzonitrile]
AR [1]
  relative luciferase activity: reduced activity relative to 27

## CCC1(C)C(=O)N(c2ccc(C)cc2)C(=S)N1c1ccc(C#N)c(C(F)(F)F)c1 (stereo not drawn) [compound 36, 4-[3-(4-Methylphenyl)-5-ethyl-5-methyl-4-oxo-2-thioxoimidazolidin-1-yl]-2-trifluoromethylbenzonitrile]
AR [1]
  relative luciferase activity: reduced activity relative to 27

## Cc1ccc(N2C(=S)N(c3ccc(C#N)c(C(F)(F)F)c3)C(=O)C23CCN(C)CC3)cc1 [compound 43, 4-(8-Methyl-4-oxo-2-thioxo-1-(4-methylphenyl)-1,3,8-triazaspiro[4.5]dec-3-yl)-2-trifluoromethylbenzonitrile]
PSA secretion
  relative PSA expression levels: distinctly less active

## COC(=O)c1ccc(N2C(=S)N(c3ccc(C#N)c(C(F)(F)F)c3)C(=O)C2(C)C)cc1 [compound 87, 4-[3-(4-Cyano-3-trifluoromethylphenyl)-5,5-dimethyl-4-oxo-2-thioxo-imidazolidin-1-yl]benzoic acid methyl ester]
LNCaP/AR cells
  activity in the hormone refractory LNCaP/AR assay: good activity

## CC1(C)C(=O)N(c2ccc(C#N)c(C(F)(F)F)c2)C(=S)N1c1ccc(C(F)(F)F)cc1 [compound 52, 4-(4,4-Dimethyl-5-oxo-2-thioxo-3-(4-trifluoromethylphenyl)imidazolidin-1-yl)-2-trifluoromethylbenzonitrile]
PSA secretion; vs standards, Scheme 11
  relative PSA readout: slightly more active than the methyl analogue 27

## N#Cc1ccc(N2C(=O)C3(CCC3)N(c3ccc(O)cc3)C2=S)cc1C(F)(F)F [compound 49, 4-(8-Oxo-6-thioxo-5-(4-hydroxyphenyl)-5,7-diazaspiro[3.4]oct-7-yl)-2-trifluoromethylbenzonitrile]
PSA secretion; vs standards, Scheme 11
  relative PSA readout: very similar in activity to 38

## CNC(=O)CCCc1ccc(N2C(=S)N(c3ccc(C#N)c(C(F)(F)F)c3)C(=O)C23CCC3)cc1 [compound 80, N-Methyl-4-{4-[7-(4-cyano-3-trifluoromethylphenyl)-8-oxo-6-thioxo-5,7-diaza-spiro[3.4]-oct-5-yl]phenyl}butanamide]
[3]; Figure 4
  PK (serum concentration curve): poor
[3]; mouse, in vivo
  metabolism seen: hydrolysis of the N-methyl amide to the acid was seen
LNCaP/AR cells
  activity using PSA levels in vitro: most active compound

## Cc1ccc(N2C(=S)N(c3ccc(C#N)c(C(F)(F)F)c3)C(=O)C2(CCl)CCl)cc1 [compound 46]
AR [2]
  activity: decreased activity

## CC(O)c1ccc(N2C(=S)N(c3ccc(C#N)c(C(F)(F)F)c3)C(=O)C23CCC3)cc1 (stereo not drawn) [compound 76, 4-{5-[4-(1-Hydroxyethyl)phenyl]-8-oxo-6-thioxo-5,7-diazaspiro[3.4]oct-7-yl}-2-trifluoromethylbenzonitrile]
PSA secretion
  IC50: 200 to 300 nM

## N#Cc1ccc(N2C(=O)C3(CCC3)N(c3ccc(O)cc3F)C2=S)cc1C(F)(F)F [compound 90]
LNCaP/AR cells
  activity in the hormone refractory LNCaP/AR assay: good activity

## CC1(C)C(=S)N(c2ccc(C#N)c(C(F)(F)F)c2)C(=S)N1c1ccc(O)cc1 [compound 55]
PSA secretion; [5]
  relative PSA readout: not as active as the parent thiohydantoin 28

## Cc1ccc(N2C(=S)N(c3ccc(C#N)c(C(F)(F)F)c3)C(=O)C23CCCC3)cc1 [compound 39, 4-(4-Oxo-2-thioxo-1-(4-methylphenyl)-1,3-diazaspiro[4.4]non-3-yl)-2-trifluoromethylbenzonitrile]
PSA secretion
  relative PSA expression levels: comparable to the dimethyl analogue 27

## N#Cc1ccc(N2C(=O)C3(CCC3)N(c3ccccc3C(=O)O)C2=S)cc1C(F)(F)F [compound 45]
AR [2]
  activity: inactive

## CC1(C)C(=O)N(c2ccc(C#N)c(C(F)(F)F)c2)C(=O)N1c1ccc(O)cc1 [compound 56]
PSA secretion; [5]
  relative PSA readout: not as active as the parent thiohydantoin 28

## CNC(=O)c1ccc(N2C(=S)N(c3ccc(C#N)c(C(F)(F)F)c3)C(=O)C23CCCC3)cc1F [compound 93, N-Methyl-4-[3-(4-cyano-3-trifluoromethylphenyl)-4-oxo-2-thioxo-1,3-diazaspiro[4.4]nonan-1-yl]-2-fluorobenzamide]
LNCaP/AR cells
  activity: very active

## Cc1ccc(N2/C(=N/c3ccc(C#N)c(C(F)(F)F)c3)S/C(=N\C(=S)Nc3ccc(C#N)c(C(F)(F)F)c3)C23CCC3)cc1 [compound 64]
AR [1]
  luciferase reporter assay activity: excellent activity comparable to their parent thiohydantoin analogues 27 and 38
PSA secretion; Scheme 14
  relative PSA levels: excellent activity comparable to their parent thiohydantoin analogues 27 and 38

## C/N=C1\N(c2ccc(C#N)c(C(F)(F)F)c2)C(=S)N(c2ccc(C)cc2)C12CCC2 [compound 57]
AR [1]
  luciferase assay activity: somewhat active
PSA secretion; [4]
  relative PSA levels: somewhat active

## N#Cc1ccc(N2C(=O)C3(CCC3)N(c3ccc(/C=C/C(N)=O)cc3)C2=S)cc1C(F)(F)F [compound 77, (E)-3-{4-[7-(4-cyano-3-trifluoromethylphenyl)-8-oxo-6-thioxo-5,7-diazaspiro[3.4]oct-5-yl]-phenyl}-2-propanamide]
PSA secretion
  IC50: 100 to 150 nM

## Cc1ccc(N2C(=S)N(c3ccc(C#N)c(C(F)(F)F)c3)C(=O)C2(C)C)cc1 [compound 27, 4-[3-(4-Methylphenyl)-4,4-dimethyl-5-oxo-2-thioxoimidazolidin-1-yl]-2-trifluoromethylbenzonitrile]
LAPC4/AR cells
  fold change in tumor volume of xenografts: more effective than bicalutamide

## N#CCCCc1ccc(N2C(=S)N(c3ccc(C#N)c(C(F)(F)F)c3)C(=O)C23CCC3)cc1 [compound 95, 4-[5-(4-(3-Cyanopropyl)phenyl)-8-oxo-6-thioxo-5,7-diazaspiro[3.4]octan-7-yl]-2-(trifluoromethyl) benzonitrile]
LNCaP/AR cells
  activity: quite good activity compared to earlier compounds

## N#Cc1ccc(N2C(=O)C3(CCC3)N(c3ccc(-c4ccccc4)cc3)C2=S)cc1C(F)(F)F [compound 48]
PSA secretion; vs standards, Scheme 11
  relative PSA readout: very similar in activity to 38

## Cc1ccc(N2C(=S)N(c3ccc(C#N)c(C(F)(F)F)c3)C(=N)C2(C)C)cc1 [compound 54]
PSA secretion; [5]
  relative PSA readout: nearly as active as the parent compounds 27 and 38
